Experimental findings from patent US7879907B2, “3-phenylpropanoic compound activators of receptors of PPAR type and pharmaceutical/cosmetic compositions comprised thereof” (Galderma Research & Development, priority 2007, dated 2011) are described below.

Structures are written as SMILES.

This assay has as its target T1, PPARγ (Gal-hPPAR) (Homo sapiens, UniProt P37231).
T1 construct: The reporter is printed as ERE-βGlob-Luc-SV-Neo
T1 sequence (P37231 238-505 limits assumed): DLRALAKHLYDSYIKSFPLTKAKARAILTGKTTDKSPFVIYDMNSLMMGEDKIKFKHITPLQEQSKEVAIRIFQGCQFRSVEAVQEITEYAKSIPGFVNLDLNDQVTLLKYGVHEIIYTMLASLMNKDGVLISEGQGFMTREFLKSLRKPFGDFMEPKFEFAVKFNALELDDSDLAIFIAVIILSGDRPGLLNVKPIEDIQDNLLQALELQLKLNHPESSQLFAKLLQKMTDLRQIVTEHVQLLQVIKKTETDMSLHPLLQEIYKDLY
As to the kind of experiment: Cross-curve PPAR transactivation test (luciferase reporter, HeLN cells), PPARγ. In kind it is cell-based. Particulars: HeLN stable transfectants; Schild regression against reference agonist; apparent Kd; read-out: PPAR gamma Kd app. How it is done: The activation of PPAR receptors with an agonist (activator) in HeLN cells leads to the expression of a reporter gene, luciferase, which, in the presence of a substrate, generates light. The modulation of the PPAR receptors is measured by quantifying the luminescence produced after incubating the cells in the presence of a reference agonist. The ligands displace the agonist from its site. The measurement of the activity is performed by quantifying the light produced. This measurement makes it possible to determine the modulatory activity of the compounds according to the invention by determining the constant that is the affinity of the molecule for the PPAR receptor. Since this value can fluctuate depending on the basal activity and the expression of the receptor, it is referred to as Kd apparent (KdApp in nM).
To determine this constant, “cross curves” of the test product against a reference agonist are produced in a 96-well plate: 10 concentrations of the test product plus a concentration 0 are arranged in a line, and 7 concentrations of the agonist plus a concentration 0 are arranged in a column. This is 88 measurement points for 1 product and 1 receptor. […]
The various dilutions of the test products and of the reference ligand are added at a rate of 5 μl per well. […] After 5 minutes, the plates are read by the luminescence detector.
Background: In a reporter assay the amount or activity of a reporter protein is the signal.

As for `CCCCOc1cc(CCC(=O)O)ccc1CCCc1ccc(OS(=O)(=O)CCCC)c(OC)c1` [Example 5, 3-(4-{3-[4-(butane-1-sulfonyloxy)-3-methoxyphenyl]propyl}-3-butoxyphenyl)propanoic acid], the Kd stood at 8 nM.
